Source: patent US8445405B2, “Synergistic herbicidal compositions containing aminopyralid, 2,4-dichlorophenoxyacetic acid and atrazine” (Dow AgroSciences, LLC., priority 2010, dated 2013)

Experiments:
[1] = tested on: bur-cucumber (Sicyos angulatus, SIYAN); assay: Field trial, post-emergence weed control in corn (Jalisco, Mexico), visual rating; assay type: in vivo
Protocol: (§1) These trials were conducted under normal corn crop conditions. Trial sites were located in commercially grown corn in the Jalisco (Mexico) area. The corn crop was grown using normal cultural practices for fertilization, seeding, and maintenance to ensure good growth of the crop and the weeds. The trials were conducted using normal research methodology. Trial plots were between 6 to 7 meters (m) wide by 10 m long. All treatments were applied using a randomized complete block trial design with 3 or 4 replications per treatment. The trial sites had naturally occurring populations of weeds. The weed spectrum included, but was not limited to, redroot pigweed (Amaranthus retroflexus, AMARE), bur-cucumber (Sicyos angulatus, SIYAN). Treatments consisted of tank mixes of Tronador™ herbicide and atrazine applied in water. The application volumes were between 250 to 300 liters per hectare (L/ha). All applications were made using precision gas hand sprayers using a 3 m boom using flat fan 8002 nozzles to broadcast the treatments on the weeds.
(§2) The treated plots and control plots were rated blind at various intervals after application. Ratings were based on Percent (%) Visual weed control, where 0 corresponds to no injury and 100 corresponds to complete kill.
(§3) Colby's equation was used to determine the herbicidal effects expected from the mixtures (Colby, S. R. Weeds 1967, 15, 20-22. Calculation of the synergistic and antagonistic response of herbicide combinations).
(§4) The following equation was used to calculate the expected activity of mixtures containing two active ingredients, A and B: Expected=A+B−(A×B/100)
(§5) A=observed efficacy of active ingredient A at the same concentration as used in the mixture.
(§6) B=observed efficacy of active ingredient B at the same concentration as used in the mixture.

[2] = tested on: redroot pigweed (Amaranthus retroflexus, AMARE); assay: as above; assay type: in vivo
Protocol: as §1, §2, §3, §4, §5, §6

[3] = 15 days after application, Atrazine 450 g ai/ha
[4] = 15 days after application, Atrazine 900 g ai/ha
[5] = 30 days after application, Atrazine 450 g ai/ha
[6] = 30 days after application, Atrazine 900 g ai/ha
[7] = 45 days after application, Atrazine 450 g ai/ha
[8] = 45 days after application, Atrazine 900 g ai/ha
[9] = 60 days after application, Atrazine 450 g ai/ha
[10] = 60 days after application, Atrazine 900 g ai/ha

SMILES: CCNc1nc(Cl)nc(NC(C)C)n1 [Atrazine, 6-chloro-N-ethyl-N′-(1-methylethyl)-1,3,5-triazine-2,4-diamine]
- SIYAN Obs - Percent control observed [1, 3]: 27.5%
- SIYAN Obs - Percent control observed [1, 4]: 42.5%
- SIYAN Obs - Percent control observed [1, 5]: 36.3%
- SIYAN Obs - Percent control observed [1, 6]: 60%
- SIYAN Obs - Percent control observed [1, 7]: 56.3%
- SIYAN Obs - Percent control observed [1, 8]: 66.3%
- SIYAN Obs - Percent control observed [1, 9]: 53.8%
- SIYAN Obs - Percent control observed [1, 10]: 65%
- AMARE Obs - Percent control observed [2, 3]: 35%
- AMARE Obs - Percent control observed [2, 4]: 46.3%
- AMARE Obs - Percent control observed [2, 5]: 77.5%
- AMARE Obs - Percent control observed [2, 6]: 82.5%
- AMARE Obs - Percent control observed [2, 7]: 91.3%
- AMARE Obs - Percent control observed [2, 8]: 94.8%
- AMARE Obs - Percent control observed [2, 9]: 91.3%
- AMARE Obs - Percent control observed [2, 10]: 97%
